According to patent US4921865A, “Aminoacylates of glycerol acetal” (Societe de Conseils de Recherches et d'Applications …, priority 1987, dated 1990):

How the values were obtained:
PAF-induced leukopenia = PAF-induced leukopenia in the guinea pig; assay type: in vivo; settings: for Percentage Variation (leukopenia): vs control
Protocol: Male Guinea-pig (400-500 g) were anesthetized with urethane (1.5 g/kg: IP) prior to be tracheotomized and ventilated with a respiratory pump (UGO BASILE) (70-80 breath/minute, 1 ml air/100 g/breath) to abolish spontaneous respiration a pneumothorax was performed. The resistance to inflation was measured with a pressure transducer (UGO BASILE) against an initial pressure of 10 cm H2 O according to Konzett and Rossler. Animals were allocated into groups and were treated or not by the compounds of the invention (0.05, 0.1, 0.5, 1 and 5 mg/kg).The products were given IV 1 hour before challenge with PAF.
The animals were challenged with various doses of PAF ([…]) given intravenously, and the variations in the resistance to inflation were recorded.
Blood samples were collected prior to and 1,5 and 10 minutes following to PAF-challenge. Forty μl of blood were diluted in 10 ml isoton (Coultronics, France); erythrocytes were lysed with Zapoglobin (France) prior leukocytes were counted in a coulter counter. To determine platelet number, 40 μl of blood were diluted in 2 ml isoton and centrifuged at 100 runs per minute for 30 secondes, 100 μl of the supernatant were collected and further diluted in 10 ml isoton prior counting in a coulter counter.

[1] = target: T1, [^3 H]-PAF binding, platelet membrane (Oryctolagus cuniculus, UniProt G1TEI7); experiment: inhibition of specific [3H]-PAF binding to rabbit platelet membranes; settings: 1 nM [3H]-PAF, 0°C 1 h 30
T1 construct: Platelet membrane homogenate was stored at -80° C; from tissue; host or cells: rabbit platelets (membrane homogenate from lysed washed platelets)
T1 sequence (G1TEI7 1-342): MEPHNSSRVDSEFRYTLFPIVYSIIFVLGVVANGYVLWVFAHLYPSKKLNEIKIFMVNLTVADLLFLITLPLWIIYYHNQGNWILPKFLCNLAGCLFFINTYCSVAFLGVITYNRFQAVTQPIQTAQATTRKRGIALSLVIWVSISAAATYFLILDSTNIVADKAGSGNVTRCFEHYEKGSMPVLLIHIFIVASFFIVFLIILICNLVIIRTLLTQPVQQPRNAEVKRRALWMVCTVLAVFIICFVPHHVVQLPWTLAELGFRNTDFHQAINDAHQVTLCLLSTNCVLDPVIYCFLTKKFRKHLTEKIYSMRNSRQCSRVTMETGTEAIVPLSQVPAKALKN
Protocol: Synthetic tritiated [^3 H]-PAF used was in ethanol solution with a specific activity of 59.5 ci/mmols. Unlabelled PAF and lyso-PAF were solubilized in ethanol solution and stored at -80° C. The compounds were solubilized in DMSO.
Rabbit whole blood (6 volumes) was drawn from the central ear artery into 1 volume of ACD solution (citric acide 1.4 g, sodium citrate 2 5 g, Dextrose 2 g per 100 ml of H2 O) and centrifuged at 150 g for 15 minutes. The platelet-rich plasma (PRP) was carefully removed and centrifuged for 15 minutes at 1000 g. The platelet pellet was then washed 3 times: twice in Tris-HCl buffer 10 mM, pH 7.4 containing NaCl 150 mM, MgCl2 5 mM, EDTA 2 mM and the last time in the same but sodium-free buffer.
The platelet pellet was resuspended in this latter buffer, quickly frozen in liquid nitrogen and slowly thawed at room temperature for at least 3 times as described by T. Y. Shen et al. The lysed platelets were centrifuged at 100,000 g for 30 minutes in a BECKMAN model L8.55 ultra centrifuge (rotor 50.2 Ti). Platelet membrane homogenate was stored at -80° C. and used within two weeks without noticeable changes in PAF-acether binding characteristics.
Protein contain was determined by the Lowry method using bovine serum albumine as standard.
60 to 100 μg of membrane proteins were added to a final volume of 1 ml in plastic tubes containing 1 nM [^3 H]-PAF in Tris-HCl 10 mM pH 7 buffer containing 0.025 % bovine serum albumin and incubated with or without unlabelled PAF or PAF-antagonists. The incubation was carried out for 1 h 30 at 0° C. The bound [^3 H]-PAF was separated from the free [^3 H]-PAF by immediate filtration through whatman GF/C glass fiber filters under vacuum (Brandel system). The reaction and the filters were washed 3 times with 5 ml of ice-cold buffer. The filters were then placed into polyethylene phials filled up with 10 ml of liquid scintillation fluid and the radioactivity was measured by an LKB β counter with 45% efficiency.
The non specific binding was determined in the presence of 10^-6 M of unlabelled PAF. The specific binding was calculated by substracting non specific binding from the total binding. The inhibition by compounds on the specific [^3 H]-PAF binding was determined as the percent inhibition by the equation: [formula]

[2] = test system: platelets (PAF induced platelet aggregation); experiment: inhibition of PAF-induced platelet aggregation in platelet rich plasma; assay type: cell-based, New Zealand rabbits; settings: Oryctolagus cuniculus; rabbit platelet rich plasma, 2.5 nM PAF
Protocol: 1--INHIBITION OF THE PLATELETS AGGREGATION ON NEW ZEALAND RABBITS
The experimentation was conducted on platelets with plasma of New Zealand rabbits.
Blood samples were taken from auricular artery and placed in a citrate buffer (3.8 %; pH 7.4); blood was further centrifugated for 15 mn at 1200 RPM.
The tested sample was prepared in DMSO, then poured on platelets rich plasma for 1 mn, then a dose of 2.5 nM of PAF was added.
The determination is made on a Cronolog Coultronics apparatus which determines the transmission percentage corresponding to the maximum height of the peak before the desaggregation.
The percentage of variation of the inhibition with respect to the transmission percentage is calculated (control: pure DMSO).
This method was described in details in LABORATORY INVESTIGATIONS, Vol. 41, No. 3, p. 275, 1979, JEAN-PIERRE CAZENAVE, Dr. MED. , JACQUES BENVENISTE, Dr. MED., AND J. FRASER MUSTARD, M.D., "Aggregation of Rabbits Platelets by Platelet-Activating Factor Is Independent of the Release Reaction and the Arachidonate Pathway and Inhibited by Membrane-Active Drugs".
Five tests made on 5 different rabbits allowed us to calculate the IC50 of the various compounds using the linear regression test.

SMILES	Percentage Decrease of leukocyte number (PAF-induced leukopenia; 0.1 mg/kg IV, 1 mn)	Percentage Variation (leukopenia) (PAF-induced leukopenia; 0.1 mg/kg IV, 1 mn)	Percentage Decrease of leukocyte number (PAF-induced leukopenia; 0.1 mg/kg IV, 5 mn)	Percentage Variation (leukopenia) (PAF-induced leukopenia; 0.1 mg/kg IV, 5 mn)	Percentage Decrease of leukocyte number (PAF-induced leukopenia; 0.1 mg/kg IV, 10 mn)	Percentage Variation (leukopenia) (PAF-induced leukopenia; 0.1 mg/kg IV, 10 mn)	Percentage Decrease of leukocyte number (PAF-induced leukopenia; 0.5 mg/kg IV, 1 mn)	Percentage Variation (leukopenia) (PAF-induced leukopenia; 0.5 mg/kg IV, 1 mn)	Percentage Decrease of leukocyte number (PAF-induced leukopenia; 0.5 mg/kg IV, 5 mn)	Percentage Variation (leukopenia) (PAF-induced leukopenia; 0.5 mg/kg IV, 5 mn)	Percentage Decrease of leukocyte number (PAF-induced leukopenia; 0.5 mg/kg IV, 10 mn)	Percentage Decrease of leukocyte number (PAF-induced leukopenia; 1 mg/kg IV, 1 mn)	Percentage Variation (leukopenia) (PAF-induced leukopenia; 1 mg/kg IV, 1 mn)	Percentage Decrease of leukocyte number (PAF-induced leukopenia; 1 mg/kg IV, 5 mn)	Percentage Variation (leukopenia) (PAF-induced leukopenia; 1 mg/kg IV, 5 mn)	Percentage Decrease of leukocyte number (PAF-induced leukopenia; 1 mg/kg IV, 10 mn)	Percentage Variation (leukopenia) (PAF-induced leukopenia; 1 mg/kg IV, 10 mn)	IC50 [1]	IC50 [2]	other results
CCCCCCCCCCCCCCCCCC1(C)OCC(COC(=O)CCCCC[n+]2ccccc2)O1 (stereo not drawn) [Example 9, 2-heptadecyl 2-methyl 4-[6'-(N-pyridinium)hexanoyloxymethyl] 1,3 dioxolan bromide]	41.8 +/- 6.50%	+2.5%	31.9 +/- 4.88%	-9.2%	33.5 +/- 4.65%	0.0%	34.6 +/- 6.35%	-15.2%	19.0 +/- 6.42%	-34.9%	14.6 +/- 5.36%	3.5 +/- 12.60%	-91.4%	2.9 +/- 10.51%	-90.1%	1.0 +/- 22.62%	-97.0%	35 nM	404 nM	Percentage Decrease of leukocyte number (PAF-induced leukopenia; 0.05 mg/kg IV, 1 mn): 45.3 +/- 5.70%; Percentage Variation (leukopenia) (PAF-induced leukopenia; 0.05 mg/kg IV, 1 mn): +11.0%; Percentage Decrease of leukocyte number (PAF-induced leukopenia; 0.05 mg/kg IV, 5 mn): 21.6 +/- 3.42%; Percentage Variation (leukopenia) (PAF-induced leukopenia; 0.05 mg/kg IV, 5 mn): -26.0%; Percentage Decrease of leukocyte number (PAF-induced leukopenia; 0.05 mg/kg IV, 10 mn): 14.2 +/- 17.30%; Percentage Variation (leukopenia) (PAF-induced leukopenia; 0.05 mg/kg IV, 10 mn): -57.6%; Percentage Decrease of leukocyte number (PAF-induced leukopenia; 5 mg/kg IV, 1 mn): 16.5 +/- 2.42%; Percentage Variation (leukopenia) (PAF-induced leukopenia; 5 mg/kg IV, 1 mn): -59.6%; Percentage Decrease of leukocyte number (PAF-induced leukopenia; 5 mg/kg IV, 5 mn): 15.9 +/- 0.99%; Percentage Variation (leukopenia) (PAF-induced leukopenia; 5 mg/kg IV, 5 mn): -45.5%; Percentage Decrease of leukocyte number (PAF-induced leukopenia; 5 mg/kg IV, 10 mn): 18.7 +/- 5.08%; Percentage Variation (leukopenia) (PAF-induced leukopenia; 5 mg/kg IV, 10 mn): -44.2%
CCCCCCCCCCCCCCCCCC1(C)OCC(COC(=O)CCCCC[n+]2cccc3ccccc32)O1 (stereo not drawn) [Example 10, 2-heptadecyl 2-methyl 4-[6'-(N-quinolinium)hexanoyloxymethyl) 1,3-dioxolanbromide]	38.8 +/- 6.3%	+6.3%	38.9 +/- 5.7%	+35.5%	41.2 +/- 6.5%	+53.2%	17.0 +/- 12.9%	-58.9%	9.0 +/- 11.8%	-68.6%	-7.6 +/- 17.5%	24.1 +/- 6.8%	-41.0%	9.3 +/- 9.4%	-67.6%	8.9 +/- 13.2%	-66.9%	35 nM	303 nM	Percentage Variation (leukopenia) (PAF-induced leukopenia; 0.5 mg/kg IV, 10 mn): +128.3%
